Assay results published in ChEMBL document CHEMBL1201862, “PubChem BioAssay data set” (2004).
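Method: 48-hour compound exposure of cells in 96-well plates, five concentrations, linear interpolation of endpoints. GI50: concentration for 50% inhibition of growth.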 Calls of active or inactive are those of the source. No stated cut-off is given here; in the data, active = GI50 up to about 1.1 µM and inactive = higher.

Key:
Assay in all cases: inhibition of tumour cell growth, NCI panel, 48 h
[1] = test system: NCI/ADR-RES
[2] = test system: HCC 2998
[3] = test system: NCI-H226
[4] = test system: SK-MEL-28
[5] = test system: A549
[6] = test system: ACHN
[7] = test system: PC-3
[8] = test system: 786-0
[9] = test system: MDA-MB-435
[10] = test system: MCF7
[11] = test system: EKVX
[12] = test system: COLO 205
[13] = test system: SK-MEL-2
[14] = test system: OVCAR-4
[15] = test system: SR
[16] = test system: RPMI-8226
[17] = test system: UO-31
[18] = test system: M14
[19] = test system: SNB-75
[20] = test system: LOX IMVI

SMILES	GI50 [1]	GI50 [2]	GI50 [3]	GI50 [4]	GI50 [5]	GI50 [6]	GI50 [7]	GI50 [8]	GI50 [9]	GI50 [10]	GI50 [11]	GI50 [12]	GI50 [13]	GI50 [14]	GI50 [15]	GI50 [16]	GI50 [17]	GI50 [18]	GI50 [19]	GI50 [20]
Nn1c(S)nnc1CCCCCCCCc1nnc(S)n1N	> 100 µM (inactive)	> 100 µM (inactive)	> 100 µM (inactive)	> 100 µM (inactive)	> 100 µM (inactive)	> 100 µM (inactive)	> 100 µM (inactive)	> 100 µM (inactive)	> 100 µM (inactive)	> 100 µM (inactive)	> 100 µM (inactive)	> 100 µM (inactive)	> 100 µM (inactive)	> 100 µM (inactive)	> 100 µM (inactive)	> 100 µM (inactive)	> 100 µM (inactive)	> 100 µM (inactive)	> 100 µM (inactive)	–
COc1c(C)c(C/C=C(\C)CCCCO[Si](C(C)C)(C(C)C)C(C)C)c(OC)c2ccccc12	> 100 µM (inactive)	> 10 µM (inactive)	–	–	> 100 µM (inactive)	> 100 µM (inactive)	> 100 µM (inactive)	> 100 µM (inactive)	> 100 µM (inactive)	> 100 µM (inactive)	> 100 µM (inactive)	> 100 µM (inactive)	> 100 µM (inactive)	> 100 µM (inactive)	70.1 µM (inactive)	–	> 100 µM (inactive)	> 100 µM (inactive)	> 100 µM (inactive)	> 100 µM (inactive)
O=C(O)Cc1cccc2c(=O)c3ccccc3oc12	> 100 µM (inactive)	22 µM (inactive)	> 100 µM (inactive)	> 100 µM (inactive)	> 100 µM (inactive)	> 100 µM (inactive)	> 100 µM (inactive)	> 100 µM (inactive)	> 100 µM (inactive)	> 100 µM (inactive)	> 100 µM (inactive)	> 100 µM (inactive)	27.3 µM (inactive)	> 100 µM (inactive)	> 100 µM (inactive)	> 100 µM (inactive)	> 100 µM (inactive)	> 100 µM (inactive)	–	> 100 µM (inactive)
CC(=O)O[C@H]1C(=O)[C@@]2(C)[C@H]([C@H](OC(=O)C3CCCCC3)[C@]3(O)C[C@H](OC(=O)[C@H](O)[C@@H](NC(=O)C4CCCCC4)C4CCCCC4)C(C)=C1C3(C)C)[C@]1(OC(C)=O)CO[C@@H]1C[C@@H]2O	1.07 µM (active)	0.0442 µM (active)	0.0311 µM (active)	0.479 µM (active)	0.0326 µM (active)	0.168 µM (active)	0.016 µM (active)	0.0171 µM (active)	0.00256 µM (active)	0.00569 µM (active)	5.61 µM (inactive)	0.00615 µM (active)	–	0.538 µM (active)	0.0082 µM (active)	0.0025 µM (active)	0.344 µM (active)	0.00889 µM (active)	0.0508 µM (active)	0.0272 µM (active)
N#Cc1ccc(C2ON=C(c3ccccc3)N2C23CC4CC(CC(C4)C2)C3)cc1 (stereo not given)	0.00536 µM (active)	> 10 µM (inactive)	6.76 µM (inactive)	> 10 µM (inactive)	> 10 µM (inactive)	> 10 µM (inactive)	7.98 µM (inactive)	> 10 µM (inactive)	> 10 µM (inactive)	> 10 µM (inactive)	> 10 µM (inactive)	> 10 µM (inactive)	> 10 µM (inactive)	> 10 µM (inactive)	3.85 µM (inactive)	6.19 µM (inactive)	–	> 10 µM (inactive)	> 10 µM (inactive)	> 10 µM (inactive)
COc1ccc2c(c1)-c1c(c3cc(OC)ccc3n1CCN(C)C)CC2	16.3 µM (inactive)	7.48 µM (inactive)	13.4 µM (inactive)	15.9 µM (inactive)	15.4 µM (inactive)	15.1 µM (inactive)	12.6 µM (inactive)	10.8 µM (inactive)	12.6 µM (inactive)	14.4 µM (inactive)	–	12.2 µM (inactive)	14.5 µM (inactive)	17.1 µM (inactive)	7.03 µM (inactive)	12.1 µM (inactive)	11.1 µM (inactive)	13.7 µM (inactive)	21.9 µM (inactive)	–
CO[C@H]1/C=C/O[C@@]2(C)Oc3c(C)c(O)c4c(O)c(c(/C=N/N5CCN(C)CC5)c(O)c4c3C2=O)NC(=O)/C(C)=C\C=C\[C@H](C)[C@H](O)[C@@H](C)[C@@H](O)[C@@H](C)[C@H](OC(C)=O)[C@@H]1C [RIFAMPIN]	> 100 µM (inactive)	72.6 µM (inactive)	–	> 100 µM (inactive)	> 100 µM (inactive)	> 100 µM (inactive)	81.5 µM (inactive)	> 100 µM (inactive)	> 100 µM (inactive)	> 100 µM (inactive)	> 100 µM (inactive)	82.6 µM (inactive)	> 100 µM (inactive)	–	3.32 µM (inactive)	52.1 µM (inactive)	68.4 µM (inactive)	62.1 µM (inactive)	–	–
COc1ccc(/C=C2\OC(=O)C(Cl)=C2c2ccc(OC)c(Cl)c2)cc1	21.4 µM (inactive)	35.3 µM (inactive)	–	35.7 µM (inactive)	24.4 µM (inactive)	30.4 µM (inactive)	30.8 µM (inactive)	15.4 µM (inactive)	23.8 µM (inactive)	19.9 µM (inactive)	18.3 µM (inactive)	40.4 µM (inactive)	49.8 µM (inactive)	20.3 µM (inactive)	29 µM (inactive)	24.9 µM (inactive)	22 µM (inactive)	25.4 µM (inactive)	19.7 µM (inactive)	32.1 µM (inactive)
CC(=O)/C=C/CCC(=O)/C=C/C(=O)OC(CCC(=O)/C=C/C(=O)O)CC(C)=O (stereo not given)	> 100 µM (inactive)	> 100 µM (inactive)	42.6 µM (inactive)	> 100 µM (inactive)	> 100 µM (inactive)	> 100 µM (inactive)	> 100 µM (inactive)	> 100 µM (inactive)	> 100 µM (inactive)	93.1 µM (inactive)	> 100 µM (inactive)	> 100 µM (inactive)	–	> 100 µM (inactive)	88.9 µM (inactive)	54.7 µM (inactive)	–	> 100 µM (inactive)	–	–
CCN1CCN(c2nc3ccccc3nc2C(=O)c2ccc(OC)cc2)CC1	45.1 µM (inactive)	> 100 µM (inactive)	–	36 µM (inactive)	23.8 µM (inactive)	27.8 µM (inactive)	78 µM (inactive)	19.4 µM (inactive)	44.3 µM (inactive)	7.1 µM (inactive)	47.1 µM (inactive)	> 100 µM (inactive)	41 µM (inactive)	57.5 µM (inactive)	11.7 µM (inactive)	7.19 µM (inactive)	19.7 µM (inactive)	15 µM (inactive)	37.2 µM (inactive)	24.8 µM (inactive)
Cc1ccc2oc(=O)c3c(O)c4cccc(OC5OC(C)C6O[C@@H](c7ccccc7)OC6C5OC5OC(C)C(O)C(O)C5O)c4c4oc(=O)c1c2c34 (stereo not given in full)	3.66 µM (inactive)	0.0442 µM (active)	0.0327 µM (active)	0.159 µM (active)	0.0354 µM (active)	0.027 µM (active)	0.0955 µM (active)	0.0389 µM (active)	0.27 µM (active)	0.0324 µM (active)	0.461 µM (active)	0.0675 µM (active)	0.196 µM (active)	0.32 µM (active)	< 0.011 µM (active)	0.0366 µM (active)	1.14 µM (inactive)	0.187 µM (active)	0.0492 µM (active)	–
Nc1ccc(CCN2CCN(CCCc3ccccc3)CC2)cc1	86.9 µM (inactive)	34.4 µM (inactive)	> 100 µM (inactive)	> 100 µM (inactive)	> 100 µM (inactive)	> 100 µM (inactive)	> 100 µM (inactive)	44.3 µM (inactive)	> 100 µM (inactive)	28.6 µM (inactive)	> 100 µM (inactive)	27.7 µM (inactive)	> 100 µM (inactive)	53.1 µM (inactive)	27.6 µM (inactive)	46.7 µM (inactive)	56.9 µM (inactive)	39.4 µM (inactive)	–	63.7 µM (inactive)
O=[N+]([O-])c1ccc(/C(=N/c2ccccc2)SS/C(=N\c2ccccc2)c2ccc([N+](=O)[O-])o2)o1	1.86 µM (inactive)	1.59 µM (inactive)	18.7 µM (inactive)	2.4 µM (inactive)	1.91 µM (inactive)	1.91 µM (inactive)	1.7 µM (inactive)	1.4 µM (inactive)	2.1 µM (inactive)	0.444 µM (active)	1.77 µM (inactive)	1.51 µM (inactive)	2.51 µM (inactive)	1.47 µM (inactive)	0.425 µM (active)	–	1.47 µM (inactive)	1.98 µM (inactive)	1.66 µM (inactive)	1.49 µM (inactive)
CC(C)(C)OC(=O)Cn1ncn(NC(=O)Cc2ccccc2)c1=S	> 10 µM (inactive)	> 10 µM (inactive)	–	> 10 µM (inactive)	> 10 µM (inactive)	> 10 µM (inactive)	> 10 µM (inactive)	> 10 µM (inactive)	> 10 µM (inactive)	> 10 µM (inactive)	> 10 µM (inactive)	> 10 µM (inactive)	–	> 10 µM (inactive)	> 10 µM (inactive)	–	> 10 µM (inactive)	> 10 µM (inactive)	> 10 µM (inactive)	> 10 µM (inactive)
